# In ChEMBL document CHEMBL5055675, “Apoptosis Inducing 1,3,4-Oxadiazole Conjugates of Capsaicin: Their In Vitro Antiproliferative and In Silico Studies” (ACS Med Chem Lett, 2021):
# Active and inactive are the calls of the source. No cut-off for these calls is given here.
# How the values were obtained:
# [1] = system: NCI-H460; test: Reduction in VEGFR2 mRNA expression in human NCI-H460 cells at 10 to 20 uM by real-time qPCR analysis; format: functional, cell-based; conditions: dose 10-20 µM
# [2] = system: NCI-H460; test: Cell cycle arrest in human NCI-H460 cells assessed as accumulation of cells in G2/M phase at 10 uM measured after 72 hrs by propidium iodide/RNase staining based flow cytometry analysis (Rvb= 10.22%); format: functional
# [3] = system: NCI-H460; test: Induction of apoptosis in human NCI-H460 cells assessed as early apoptotic cells at 5 uM measured after 72 hrs by Annexin V-FITC and propidium iodide staining based flow cytometry analysis (Rvb= 6.61%); format: functional
# [4] = system: NCI-H460; test: Effect on total ERK expression in human NCI-H460 cells at 1 to 20 uM measured after 72 hrs by western blot analysis; format: functional, cell-based; conditions: dose 1-20 µM
# [5] = system: CAKI-1; test: Antiproliferative activity against human CAKI-1 cells assessed as cell growth at 10 uM incubated for 48 hrs by sulforhodamine B assay relative to control; format: functional; conditions: read-out: Activity
# [6] = molecular target: MAP kinase p38 (Homo sapiens) (UniProt O15264+Q15759+Q16539+P53778); test: Inhibition of p38 MAPK phosphorylation in human NCI-H460 cells at 20 uM measured after 72 hrs by western blot analysis; format: cell-based
# [7] = system: NCI-H460; test: Induction of apoptosis in human NCI-H460 cells assessed as early apoptotic cells at 20 uM measured after 72 hrs by Annexin V-FITC and propidium iodide staining based flow cytometry analysis (Rvb= 6.61%); format: functional
# [8] = system: NCI-H460; test: Induction of apoptosis in human NCI-H460 cells assessed as late apoptotic cells at 5 uM measured after 72 hrs by Annexin V-FITC and propidium iodide staining based flow cytometry analysis (Rvb= 6.93%); format: functional
# [9] = system: NCI-H460; test: Induction of ROS production in human NCI-H460 cells at 20 uM incubated for 24 hrs by CM-H2DCFDA probe based flow cytometry analysis; format: functional, cell-based
# [10] = system: NCI-H460; test: Cell cycle arrest in human NCI-H460 cells assessed as accumulation of cells in S phase at 5 uM measured after 72 hrs by propidium iodide/RNase staining based flow cytometry analysis (Rvb= 26.87%); format: functional
# [11] = system: NCI-H460; test: Induction of apoptosis in human NCI-H460 cells assessed as decrease in pro-PARP expression level at 1 to 20 uM measured after 72 hrs by western blot analysis; format: functional, cell-based; conditions: dose 1-20 µM
# [12] = system: NCI-H460; test: Inhibition of cell proliferation in human NCI-H460 cells assessed as reduction in PCNA expression measured after 72 hrs by western blot analysis; format: functional, cell-based; conditions: dose 1-20 µM
# [13] = system: PNT2; test: Cytotoxicity against human PNT2 cells assessed as reduction in cell viability at 4 times IC50 measured after 72 hrs by crystal violet staining based assay; conditions: pnt2, 72 h
# [14] = system: NCI-H460; test: Inhibition of ERK phosphorylation in human NCI-H460 cells at 20 uM measured after 72 hrs by western blot analysis; format: cell-based
# [15] = system: NCI-H460; test: Antimigratory activity against human NCI-H460 cells assessed as reduction in VEGF expression level measured after 72 hrs by western blot analysis; format: functional, cell-based; conditions: dose 1-20 µM
smiles,measurement,setting,value
COc1cc(CNC(=O)CCCC/C=C/C(C)C)ccc1OCc1nnc(Nc2ccc([N+](=O)[O-])cc2)o1,inhibition,[1],Active
same,Activity,[2],11.81%
same,Activity,[3],5.45%
same,Activity,[4],inactive
same,growth at 10 µM,[5],33.6%
same,inhibition,[6],Active
same,Activity,[7],21.15%
same,Activity,[8],8.07%
same,Activity,[9],Active
same,Activity,[10],28.16%
same,Activity,[11],Active
same,inhibition,[12],Dose-dependent effect
same,Activity,[13],Non-Toxic
same,inhibition,[14],Active
same,Activity,[15],Dose-dependent effect
